Results taken from patent publication US5554613A, “Heterocyclic derivatives” (Zeneca Limited, priority 1992, dated 1996).

Columns and labels:
[1] = tested on: de novo hepatic cholesterol synthesis; experiment: Acute rat cholesterol synthesis assay (de novo hepatic cholesterol synthesis from 14C-acetate); format: in vivo; settings: female rats, oral gavage, ip or iv dosing, [2-14C]-acetate ip after 1 hour
Experimental: (b) Ache rat cholesterol synthesis assay.
This is an acute in vivo test in the rat to measure de novo hepatic cholesterol synthesis from exogenously administered ^14 C-acetate.
Female rats (35-55 g) are housed in reverse lighting conditions (red light from 0200h-1400h) for a period of about 2 weeks prior to test. Animals are allowed free access to chow and drinking water throughout this period. At test, animals should weigh 125-150 g.
Test compounds may be administered by oral gavage, dissolved or suspended in 0.5% polysorbate, or by ip or iv dosing. Control animals receive vehicle alone. After 1 hour the rats are injected ip with 25 μCi [2-^14 C]-acetate (NEN DUPONT. specific activity, 45-60 mCi/mmol NEC-085H, or AMERSHAM specific activity, 50-60mCi/mmol CFA 14) in a volume of 0.25 ml saline (100 μCi/ml). After a further hour, rats are terminally anaesthetised with halothane and a blood sample obtained from the abdominal vena cava.
1 ml of plasma is lyophilised and then saponified in 2 ml ethanolic KOH (1 part 33% KOH, 9 parts ethanol) at 75° C. for 2 hours. After addition of an equal quantity of water, non-saponifiable lipids are extracted with two 5 ml volumes of hexane. The hexane extracts are evaporated to dryness and the residues dissolved in ethanol to determine cholesterol specific radioactivity. ED50 values can be determined in the standard way.

Squalene synthase = target: T1, Squalene synthase (Rattus norvegicus, UniProt Q02769); experiment: Inhibition of Squalene synthase (formation of squalene from tritiated farnesyl pyrophosphate, rat liver microsomal protein); format: biochemical; settings: at a concentration of 2.5 μM; rat liver microsomes
T1 construct: rat liver microsomal protein; from tissue; host or cells: rat liver microsomes
T1 sequence (Q02769 1-416): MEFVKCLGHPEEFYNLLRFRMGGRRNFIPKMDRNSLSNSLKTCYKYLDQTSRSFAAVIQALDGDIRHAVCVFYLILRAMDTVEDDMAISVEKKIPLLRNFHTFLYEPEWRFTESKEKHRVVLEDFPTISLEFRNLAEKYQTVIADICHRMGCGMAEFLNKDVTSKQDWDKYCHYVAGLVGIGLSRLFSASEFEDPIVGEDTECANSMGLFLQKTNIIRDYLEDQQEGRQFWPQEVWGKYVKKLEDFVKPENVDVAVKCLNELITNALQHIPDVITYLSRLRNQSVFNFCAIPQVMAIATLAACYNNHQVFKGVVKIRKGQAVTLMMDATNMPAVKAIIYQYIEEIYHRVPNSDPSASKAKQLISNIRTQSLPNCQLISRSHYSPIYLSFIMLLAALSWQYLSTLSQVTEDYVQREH
Experimental: (a) Inhibition of Squalene synthase
In this test, the ability of a compound to prevent the formation of squalene from a radioactive substrate (tritiated farnesyl pyrophosphate) is assessed.
The test compound is incubated at a concentration of […] in 200 μl of a buffered solution containing potassium phosphate (50 mM), MgCl2 (4.95 mM), KF (9.9 mM), NADPH (0.9 mM) and rat liver microsomal protein (20 μg). Rat liver microsomes are prepared by the method described in published European Patent Application No. 324,421 and stored in liquid nitrogen prior to assay. Assay vials are kept at 37° C. throughout the incubation.
The reaction is started with the addition of the substrate (1-[^3 H]-farnesyl pyrophosphate), final concentration 20 μM, and stopped after 15 minutes reaction time with the addition of 50 μl of 4% KOH. The reaction products are separated from unreacted substrate after application to a C-18 octadecyl 1 ccBond column (Analytichem Int product No. 617101). An aqueous fraction is eluted with 250 μl of 0.1M KOH. Squalene is then eluted with 1.0 ml 10% ethylacetate in hexane and radioactivity determined. The difference in radioactivity in the presence and absence of the test compound is used to determine the level of inhibition. […] The IC50 can then be determined from a plot of percentage inhibition against concentration of test compound.

Which ED50 [1] does the source give for `OC1(c2ccc(-c3ccccn3)cc2)CN2CCC1CC2` (stereo not drawn) [Example 2, 3-[4-(pyrid-2-yl)phenyl]quinuclidin-3-ol] here?
The ED50 was 14 mg/kg.

`OC1(c2ccc(-c3cncnc3)cc2)CN2CCC1CC2` (stereo not drawn) [Example 4, 3-[4-(pyrimidin-5-yl)phenyl]quinuclidin-3-ol] was tested. Which ED50 [1] did it give?
The ED50 was 4.5 mg/kg.

What about the inhibition at 2.5 µM (Squalene synthase) of the same compound?
Its inhibition at 2.5 µM is roughly 54%.
